Tested on: tested bacteria and fungi (E. coli, S. aureus, P. aeruginosa, C. albicans, A. brasiliensis)
Assay: Challenge test of preservative efficacy in formulations (ISO 11930)
Assay type: cell-based
Description: Escherichia coli (ATCC 8739), Staphylococcus aureus (ATCC 6538), P. aeruginosa (ATCC 9027), Candida albicans (ATCC 10231), and Aspergillus brasiliensis (ATCC 16404) were obtained from ATCC and cultured according to the manufacturer's instructions. These microorganisms are routinely used for minimum inhibitory concentration (MIC), checkerboards and challenge tests according to the US and EU recommendations for the efficacy of preservatives in the cosmetic industry. Bacterial strains were maintained in tryptic soy agar (TSA) (Hy-labs, Rehovot, Israel), while yeast and mold strains were maintained in sabouraud dextrose agar (SDA) (Hy-labs, Israel), supplemented with oxytetracycline at a concentration of 1% (Hy-labs, Israel). Preservative efficacy assays (challenge tests) were performed in order to enumerate the number of microorganisms present in a formulation containing the preservative system, while the diluent solution was supplemented with neutralizers containing 4% Tween 20 and 0.5% lecithin (Hy-labs, Israel). Challenge tests of preservative efficacy in formulations were performed according to the ISO 11930 regulations. The total count for any prior contamination was performed for all formulations. Specifically, in order to evaluate the antimicrobial and antifungal activity of the preservative system, samples were inoculated separately with each microorganism at a final concentration of 10^6 cfu/mL for bacteria and 10^5 cfu/mL for yeast and mold. Samples were incubated in the dark at 22° C. for 28 days. […] To enumerate the microorganisms at each time point, serial dilutions were made up to 10-4, and 1 mL were seeded in duplicates onto a petri dish with the appropriate media TSA/SDA (bacteria vs. yeast and mold, respectively), using the pour plate method. Plates were incubated at 32° C. for three days for bacteria while yeast and mold were incubated at 22° C. for five days until the enumeration of viable microorganisms. [table]

## CCCCCCC(O)CO (stereo not drawn) [CG, Caprylyl Glycol]
Sole application (without niacinamide)
  preservative activity: didn't show any markable preservative activity

## NC(=O)c1cccnc1 [niacinamide]
Alone at the above concentrations (about 2.8% niacinamide or about 0.2% cationic surfactant)
  antimicrobial activity of the single agent: only limited antimicrobial activity

## polylysine
Standalone treatment, 0.1%, non-ionic cream
  preservative activity: didn't show any markable preservative activity

Source: patent publication US20260144257A1, “VITAMIN B3 BASED PRESERVATIVE COMPOSITIONS” (SHARON PERSONAL CARE LTD., priority 2022, published 2026)
